PubChem BioAssay AID2060500 (Molecular Pharmacology Branch, DTP, NCI, 2025)

Test system: 596521-263-R-J1-PDC complex spheroids, viability % of control
Assay: Anticancer human tumor 596521-263-R-J1-PDC patient-derived soft tissue sarcoma cell line growth inhibition [GQUAD]
Conditions: for IC50: curve of first compound; for viability, T/C: stronger effect = lower value
Outline: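 Tumor cells were grown as complex spheroids with HUVEC endothelial cells and mesenchymal stem cells as stroma. G-quadruplex stabilizers were combined with targeted agents over half-log dilutions from near the clinical Cmax, or from 10 microM.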

[1] = second compound 0.0316 µM, first compound 0.0316 µM
[2] = second compound 0.0316 µM, first compound 0.1 µM
[3] = second compound 0.0316 µM, first compound 0.316 µM
[4] = second compound 0.0316 µM, first compound 1 µM
[5] = second compound 0.0316 µM, first compound 3.16 µM
[6] = second compound 0.0316 µM, first compound 10 µM
[7] = second compound 0.1 µM, first compound 0.0316 µM
[8] = second compound 0.1 µM, first compound 0.1 µM
[9] = second compound 0.1 µM, first compound 0.316 µM
[10] = second compound 0.1 µM, first compound 1 µM
[11] = second compound 0.1 µM, first compound 3.16 µM
[12] = second compound 0.1 µM, first compound 10 µM
[13] = second compound 0.316 µM, first compound 0.0316 µM
[14] = second compound 0.316 µM, first compound 0.1 µM
[15] = second compound 0.316 µM, first compound 0.316 µM
[16] = second compound 0.316 µM, first compound 1 µM
[17] = second compound 0.316 µM, first compound 3.16 µM
[18] = second compound 0.316 µM, first compound 10 µM
[19] = second compound 1 µM, first compound 0.0316 µM
[20] = second compound 1 µM, first compound 0.1 µM
[21] = second compound 1 µM, first compound 0.316 µM
[22] = second compound 1 µM, first compound 1 µM
[23] = second compound 1 µM, first compound 3.16 µM
[24] = second compound 1 µM, first compound 10 µM
[25] = second compound 3.16 µM, first compound 0.0316 µM
[26] = second compound 3.16 µM, first compound 0.1 µM
[27] = second compound 3.16 µM, first compound 0.316 µM
[28] = second compound 3.16 µM, first compound 1 µM
[29] = second compound 3.16 µM, first compound 3.16 µM
[30] = second compound 3.16 µM, first compound 10 µM
[31] = second compound 10 µM, first compound 0.0316 µM
[32] = second compound 10 µM, first compound 0.1 µM
[33] = second compound 10 µM, first compound 0.316 µM
[34] = second compound 10 µM, first compound 1 µM
[35] = second compound 10 µM, first compound 3.16 µM
[36] = second compound 10 µM, first compound 10 µM
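Note: spheroids exposed to drugs for 7 days before viability reading.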
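Throughout, for viability, T/C: 100% = DMSO vehicle control viability.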

C=CCn1c(=O)c2cnc(Nc3ccc(N4CCN(C)CC4)cc3)nc2n1-c1cccc(C(C)(C)O)n1 + CN(C)c1ccc(Nc2c3ccc(NC(=O)CCN4CCCC4)cc3nc3cc(NC(=O)CCN4CCCC4)ccc23)cc1
IC50 (second compound 0.0316 µM): 644 nM | IC50 (second compound 0.1 µM): 544 nM | IC50 (second compound 0.316 µM): 484 nM | IC50 (second compound 1 µM): 760 nM | IC50 (second compound 3.16 µM): 757 nM | IC50 (second compound 10 µM): 308 nM | viability, T/C [1]: 90.4% | viability, T/C [2]: 81.2% | viability, T/C [3]: 53.5% | viability, T/C [4]: 44.9% | viability, T/C [5]: 42% | viability, T/C [6]: 27.7% | viability, T/C [7]: 105% | viability, T/C [8]: 82.5% | viability, T/C [9]: 53.9% | viability, T/C [10]: 44.1% | viability, T/C [11]: 45.3% | viability, T/C [12]: 32.9% | viability, T/C [13]: 90.5% | viability, T/C [14]: 90.4% | viability, T/C [15]: 54.5% | viability, T/C [16]: 47.3% | viability, T/C [17]: 46.1% | viability, T/C [18]: 32.1% | viability, T/C [19]: 86.4% | viability, T/C [20]: 79.6% | viability, T/C [21]: 57.1% | viability, T/C [22]: 47% | viability, T/C [23]: 49.4% | viability, T/C [24]: 34.7% | viability, T/C [25]: 100% | viability, T/C [26]: 84.8% | viability, T/C [27]: 63.9% | viability, T/C [28]: 44.4% | viability, T/C [29]: 38.2% | viability, T/C [30]: 31.2% | viability, T/C [31]: 66.9% | viability, T/C [32]: 54.9% | viability, T/C [33]: 47.3% | viability, T/C [34]: 44.7% | viability, T/C [35]: 34.2% | viability, T/C [36]: 20.7%

C=CC(=O)N1CCN(c2nc(=O)n(-c3c(C)ccnc3C(C)C)c3nc(-c4c(O)cccc4F)c(F)cc23)C(C)C1 (stereo not drawn) + Cc1[nH]c2ccc(F)cc2c1-c1nc2c3cccnc3c3ncccc3c2[nH]1
IC50 (second compound 0.0316 µM): > 10000 nM | IC50 (second compound 0.1 µM): > 10000 nM | IC50 (second compound 0.316 µM): > 10000 nM | IC50 (second compound 1 µM): > 10000 nM | IC50 (second compound 3.16 µM): > 10000 nM | IC50 (second compound 10 µM): > 10000 nM | viability, T/C [1]: 91.6% | viability, T/C [2]: 102% | viability, T/C [3]: 98% | viability, T/C [4]: 100% | viability, T/C [5]: 103% | viability, T/C [6]: 69.3% | viability, T/C [7]: 97% | viability, T/C [8]: 97.1% | viability, T/C [9]: 95.2% | viability, T/C [10]: 107% | viability, T/C [11]: 90.8% | viability, T/C [12]: 67.8% | viability, T/C [13]: 91.5% | viability, T/C [14]: 108% | viability, T/C [15]: 89.5% | viability, T/C [16]: 99.7% | viability, T/C [17]: 89.8% | viability, T/C [18]: 67% | viability, T/C [19]: 95.6% | viability, T/C [20]: 82.5% | viability, T/C [21]: 99.8% | viability, T/C [22]: 97.5% | viability, T/C [23]: 90.8% | viability, T/C [24]: 75.8% | viability, T/C [25]: 90.7% | viability, T/C [26]: 88.2% | viability, T/C [27]: 91.9% | viability, T/C [28]: 95.1% | viability, T/C [29]: 90.8% | viability, T/C [30]: 73.3% | viability, T/C [31]: 71% | viability, T/C [32]: 72% | viability, T/C [33]: 83.1% | viability, T/C [34]: 72.1% | viability, T/C [35]: 85.3% | viability, T/C [36]: 56.4%

CC[C@@]1(O)C(=O)OCc2c1cc1n(c2=O)Cc2cc3c(CN(C)C)c(O)ccc3nc2-1 + CN(C)c1ccc(Nc2c3ccc(NC(=O)CCN4CCCC4)cc3nc3cc(NC(=O)CCN4CCCC4)ccc23)cc1
IC50 (second compound 0.0316 µM): > 316 nM | IC50 (second compound 0.1 µM): 161 nM | IC50 (second compound 0.316 µM): > 316 nM | IC50 (second compound 1 µM): > 316 nM | IC50 (second compound 3.16 µM): > 316 nM | IC50 (second compound 10 µM): 76.9 nM | viability, T/C (second compound 0.0316 µM, first compound 0.000999 µM): 99.7% | viability, T/C (second compound 0.0316 µM, first compound 0.00316 µM): 108% | viability, T/C (second compound 0.0316 µM, first compound 0.00999 µM): 91.9% | viability, T/C [1]: 62.4% | viability, T/C (second compound 0.0316 µM, first compound 0.0999 µM): 63.8% | viability, T/C [3]: 53.2% | viability, T/C (second compound 0.1 µM, first compound 0.000999 µM): 114% | viability, T/C (second compound 0.1 µM, first compound 0.00316 µM): 105% | viability, T/C (second compound 0.1 µM, first compound 0.00999 µM): 103% | viability, T/C [7]: 65.3% | viability, T/C (second compound 0.1 µM, first compound 0.0999 µM): 54.3% | viability, T/C [9]: 46.2% | viability, T/C (second compound 0.316 µM, first compound 0.000999 µM): 94.5% | viability, T/C (second compound 0.316 µM, first compound 0.00316 µM): 97.9% | viability, T/C (second compound 0.316 µM, first compound 0.00999 µM): 83.3% | viability, T/C [13]: 74.1% | viability, T/C (second compound 0.316 µM, first compound 0.0999 µM): 59.4% | viability, T/C [15]: 53.6% | viability, T/C (second compound 1 µM, first compound 0.000999 µM): 92% | viability, T/C (second compound 1 µM, first compound 0.00316 µM): 92.9% | viability, T/C (second compound 1 µM, first compound 0.00999 µM): 86.1% | viability, T/C [19]: 73.1% | viability, T/C (second compound 1 µM, first compound 0.0999 µM): 57.3% | viability, T/C [21]: 54.2% | viability, T/C (second compound 3.16 µM, first compound 0.000999 µM): 95.8% | viability, T/C (second compound 3.16 µM, first compound 0.00316 µM): 88.8% | viability, T/C (second compound 3.16 µM, first compound 0.00999 µM): 84.1% | viability, T/C [25]: 61.1% | viability, T/C (second compound 3.16 µM, first compound 0.0999 µM): 59.1% | viability, T/C [27]: 52.5% | viability, T/C (second compound 10 µM, first compound 0.000999 µM): 58.5% | viability, T/C (second compound 10 µM, first compound 0.00316 µM): 70.6% | viability, T/C (second compound 10 µM, first compound 0.00999 µM): 54.6% | viability, T/C [31]: 50.1% | viability, T/C (second compound 10 µM, first compound 0.0999 µM): 52% | viability, T/C [33]: 41.4%

Cc1cccc(N(C)C(=O)C2C(O)CCN2c2nc(C)cc(C(F)(F)F)c2C#N)c1 (stereo not drawn) + Cc1cnc(CNC(=O)c2c(=O)c3ccc(N4CCCN(C)CC4)nc3n3c2sc2ccccc23)cn1
IC50 (second compound 0.0316 µM): > 10000 nM | IC50 (second compound 0.1 µM): > 10000 nM | IC50 (second compound 0.316 µM): > 10000 nM | IC50 (second compound 1 µM): > 10000 nM | IC50 (second compound 3.16 µM): > 10000 nM | IC50 (second compound 10 µM): 3380 nM | viability, T/C [1]: 123% | viability, T/C [2]: 98.5% | viability, T/C [3]: 106% | viability, T/C [4]: 98.5% | viability, T/C [5]: 104% | viability, T/C [6]: 99.3% | viability, T/C [7]: 87% | viability, T/C [8]: 87% | viability, T/C [9]: 93.8% | viability, T/C [10]: 92.4% | viability, T/C [11]: 86.3% | viability, T/C [12]: 90.9% | viability, T/C [13]: 74.5% | viability, T/C [14]: 77.9% | viability, T/C [15]: 81.7% | viability, T/C [16]: 80.6% | viability, T/C [17]: 85.4% | viability, T/C [18]: 80.6% | viability, T/C [19]: 63.1% | viability, T/C [20]: 70.7% | viability, T/C [21]: 60.7% | viability, T/C [22]: 64.7% | viability, T/C [23]: 68.5% | viability, T/C [24]: 66.3% | viability, T/C [25]: 64.6% | viability, T/C [26]: 57.9% | viability, T/C [27]: 62% | viability, T/C [28]: 52.1% | viability, T/C [29]: 59% | viability, T/C [30]: 54.4% | viability, T/C [31]: 50.7% | viability, T/C [32]: 49.8% | viability, T/C [33]: 49.3% | viability, T/C [34]: 51.8% | viability, T/C [35]: 51% | viability, T/C [36]: 41.8%
